Measurements taken from ChEMBL document CHEMBL4342436, “Artemisia: a promising plant for the treatment of cancer” (Bioorg Med Chem, 2020).
In brackets after ≈: the same amount, converted by molar mass. Values belong to the compound of their own block, whether it stands above or below them.

Experiments:
IGROV-1 = assay: Growth inhibition of human IGROV1 cells assessed as reduction in cell viability at 15 uM by MTT assay relative to control; type: functional; conditions: read-out: GI
OVCAR-3 = assay: Growth inhibition of human OVCAR3 cells assessed as reduction in cell viability at 15 uM by MTT assay relative to control; type: functional; conditions: read-out: GI
HCT-116 = assay: Growth inhibition of human HCT116 cells assessed as reduction in cell viability at 15 uM by MTT assay relative to control; type: functional; conditions: read-out: GI
BGC-823 [1] = assay: Cytotoxicity against human BGC823 cells; type: functional, cell-based
HCT-8 [2] = assay: Cytotoxicity against human HCT8 cells; type: functional, cell-based
A549 [3] = assay: Cytotoxicity against human A549 cells; type: functional, cell-based
HL-60 = assay: Cytotoxicity against human HL60 cells; type: functional, cell-based
K562 [4] = assay: Cytotoxicity against human K562 cells; type: functional, cell-based
[5] = Cytotoxicity against human 95-D cells by SRB assay; type: functional, cell-based
SW-620 = assay: Antitumour activity against human SW620 cells xenografted in nude mouse assessed as inhibition of tumour growth at 50 mg/kg, ip for 17 days relative to control; type: functional; conditions: SW-620, ip, 408 h, read-out: TGI
NCI-H23 = assay: Antitumour activity against human NCI-H23 cells xenografted in nude mouse assessed as inhibition of tumour growth at 50 mg/kg, ip for 17 days relative to control; type: functional; conditions: 408 h, read-out: TGI
BGC-823 [6] = assay: Cytotoxicity against human BGC823 cells after 72 hrs by MTT assay; type: functional, cell-based; conditions: BGC-823, 72 h
A549 [7] = assay: Cytotoxicity against human A549 cells after 72 hrs by MTT assay; type: functional, cell-based; conditions: A549, 72 h
HCT-8 [8] = assay: Cytotoxicity against human HCT8 cells after 72 hrs by MTT assay; type: functional, cell-based; conditions: HCT-8, 72 h
MCF7 = assay: Antiproliferative activity against human MCF7 cells assessed as reduction in cell viability after 48 hrs by MTT assay; type: functional, cell-based; conditions: MCF7, 48 h
BHY = assay: Antiproliferative activity against human BHY cells assessed as reduction in cell viability after 48 hrs by MTT assay; type: functional, cell-based
MIA PaCa-2 = assay: Antiproliferative activity against human MIAPaCa2 cells assessed as reduction in cell viability after 48 hrs by MTT assay; type: functional, cell-based; conditions: MIA PaCa-2, 48 h
COLO 205 = assay: Antiproliferative activity against human COLO205 cells assessed as reduction in cell viability after 48 hrs by MTT assay; type: functional, cell-based; conditions: COLO 205, 48 h
A549 [9] = assay: Antiproliferative activity against human A549 cells assessed as reduction in cell viability after 48 hrs by MTT assay; type: functional, cell-based; conditions: A549, 48 h
B16-F10 = assay: Cytotoxicity against mouse B16F10 cells assessed as reduction in cell viability incubated for 24 hrs by MTT assay; type: functional, cell-based; conditions: B16-F10, 24 h
A-431 = assay: Cytotoxicity against human A431 cells assessed as reduction in cell viability incubated for 24 hrs by MTT assay; type: functional, cell-based; conditions: A-431, 24 h
SMMC-7721 = assay: Cytotoxicity against human SMMC7721 cells by MTT assay; type: functional, cell-based
SGC-7901 = assay: Cytotoxicity against human SGC7901 cells by MTT assay; type: functional, cell-based
[10] = Cytotoxicity against mouse Meth-A cells by MTT assay; type: functional; conditions: read-out: ED50 (the source's name)
K562 [11] = assay: Antiproliferative activity against human K562 cells assessed as cell viability at 75 uM after 48 hrs relative to control; type: functional; conditions: K562, 48 h, read-out: Activity
K562 [12] = assay: Cytotoxicity against human K562 cells assessed as cell viability at 75 uM after by MTT assay relative to control; type: functional; conditions: read-out: Activity
HepG2 = assay: Cytotoxicity against human HepG2 cells assessed as reduction in cell viability by CCK8 assay; type: functional, cell-based
A549 [13] = assay: Cytotoxicity against human A549 cells assessed as reduction in cell viability by CCK8 assay; type: functional, cell-based

Compound: COc1cc2oc(-c3ccc(O)c(O)c3)cc(=O)c2c(O)c1OC [CIRSILIOL]
inhibition of growth at 15 µM (IGROV-1): 48.8%
inhibition of growth at 15 µM (OVCAR-3): 53.7%
inhibition of growth at 15 µM (HCT-116): 40.9%

Compound: CC(=O)OCC1=C2CC[C@@]3(C)[C@H](O)CC(OC(C)=O)=C(C)[C@@H]3[C@H]2OC1=O
IC50 (BGC-823 [1]): 2.71 µM
IC50 (HCT-8 [2]): 3.76 µM
IC50 (A549 [3]): 5.49 µM

Compound: C=C1CCC(O)C2(C)CCC3C(C)C(=O)OC3C12O (stereo not drawn)
IC50 (HL-60): 71.1 µM
IC50 (K562 [4]): 22.5 µM
IC50 [5]: 11.3 µM

Compound: C=C1C(=O)O[C@@H]2[C@@H]3[C@@]4(C=C[C@@]3(C)[C@@]3(C4)C(=O)O[C@@H]4[C@H]5C(C)=CC(=O)C5=C(C)C[C@H](OC(=O)/C(C)=C\C)[C@H]43)[C@](C)(O)CC[C@@H]12
inhibition in vivo at 50 mg/kg (SW-620): 39.5%
inhibition in vivo at 50 mg/kg (NCI-H23): 30.3%

Compound: CC#CC#CC1=C(CCCCO)C(O)C(O)C1=O (stereo not drawn)
IC50 (BGC-823 [6]): 1.1 µM
IC50 (A549 [7]): 7.5 µM
IC50 (HCT-8 [8]): 4.6 µM

IC50 (MCF7): 25.2 to 88.1 µM
IC50 (MIA PaCa-2): 25.2 to 88.1 µM
IC50 (COLO 205): 25.2 to 88.1 µM
IC50 (A549 [9]): 25.2 to 88.1 µM
Compound: C=C1C(=O)O[C@H]2[C@H]1CCC(C)=C1C[C@H]3O[C@@]3(C)[C@@H]12 [LUDARTIN]
IC50 (BHY): 25.2 to 88.1 µM
IC50 (B16-F10): 6.6 µM
IC50 (A-431): 19 µM

Compound: CC1=CC2O[C@@H]3C[C@H]4OC(=O)/C=C\CC[C@]56OCCC7(OC7C(=O)OC[C@@]2(CC1)[C@]4(C)[C@]31CO1)[C@H]5OC(=O)[C@H]6O (stereo partly drawn)
IC50 (SMMC-7721): 10.54 µg/mL (≈ 18.9 µM)
IC50 (SGC-7901): 0.26 µg/mL (≈ 0.465 µM)

Compound: CC(C)C(=O)CC[C@@H](C)[C@H]1CC[C@@]2(C)[C@@H]3CC[C@H]4C(C)(C)[C@@H](O)CC[C@@]45C[C@@]35CC[C@]12C
EC50 [10]: 4 to 10 µg/mL (≈ 9.03 to 22.6 µM)

Compound: C[C@@H]1C(=O)O[C@H]2C1CC[C@@]1(C)[C@H](O)CC[C@@]13C[C@]2(O)OO3 (stereo partly drawn)
viability at 75 µM (K562 [11]): 40%
viability at 75 µM (K562 [12]): 40%

Compound: C=C1C(=O)O[C@@H]2[C@@H]3C4(C=C[C@@]3(C)[C@]3(C4)C(=O)O[C@@H]4[C@H]5C(C)=CC(=O)C5=C(C)C[C@H](OC(C)=O)[C@H]43)[C@@](C)(OC(C)=O)CC[C@@H]12
IC50 (HepG2): 0.6 to 5.4 µM
IC50 (A549 [13]): 0.6 to 5.4 µM
